According to BindingDB's records for doi:10.1021/jm000317+ (Virginia Commonwealth University, 2001):

Test: Ki value determined against Sigma opioid receptor type 2 using [3H]DTG(5 nM) with 1uM dextrallorphan to mask sigma1 binding

SMILES | Ki [µM]
CC1C2Cc3ccc(O)cc3[C@@]1(C)CCN2CCC#N (some centres not stated) [3-(8-Hydroxy-6,11-dimethyl-1,2,5,6-tetrahydro-4H-2,6-methano-benzo[d]azocin-3-yl)-propionitrile] | > 100
C=CCN1CC[C@]2(C)c3cc(O)ccc3CC1C2C (some centres not stated) [3-Allyl-6,11-dimethyl-1,2,3,4,5,6-hexahydro-2,6-methano-benzo[d]azocin-8-ol] | 27
C=CCCN1CC[C@]2(C)c3cc(O)ccc3CC1C2C (some centres not stated) [3-But-3-enyl-6,11-dimethyl-1,2,3,4,5,6-hexahydro-2,6-methano-benzo[d]azocin-8-ol] | 7.6
C#CCCN1CC[C@]2(C)c3cc(O)ccc3CC1C2C (some centres not stated) [3-But-3-ynyl-6,11-dimethyl-1,2,3,4,5,6-hexahydro-2,6-methano-benzo[d]azocin-8-ol] | 15
C=CCCCCN1CC[C@]2(C)c3cc(O)ccc3CC1C2C (some centres not stated) [3-Hex-5-enyl-6,11-dimethyl-1,2,3,4,5,6-hexahydro-2,6-methano-benzo[d]azocin-8-ol] | 0.76
CC1C2Cc3ccc(O)cc3[C@@]1(C)CCN2CCCC#N (some centres not stated) [4-(8-Hydroxy-6,11-dimethyl-1,2,5,6-tetrahydro-4H-2,6-methano-benzo[d]azocin-3-yl)-butyronitrile] | 34
CC1C2Cc3ccc(O)cc3[C@@]1(C)CCN2CCCCC#N (some centres not stated) [5-(8-Hydroxy-6,11-dimethyl-1,2,5,6-tetrahydro-4H-2,6-methano-benzo[d]azocin-3-yl)-pentanenitrile] | 13
C=CCCCN1CC[C@]2(C)c3cc(O)ccc3CC1C2C (some centres not stated) [6,11-Dimethyl-3-pent-4-enyl-1,2,3,4,5,6-hexahydro-2,6-methano-benzo[d]azocin-8-ol] | 2.5
C#CCCCN1CC[C@]2(C)c3cc(O)ccc3CC1C2C (some centres not stated) [6,11-Dimethyl-3-pent-4-ynyl-1,2,3,4,5,6-hexahydro-2,6-methano-benzo[d]azocin-8-ol] | 3.5
CC1C2Cc3ccc(O)cc3[C@@]1(C)CCN2CCCCCC#N (some centres not stated) [6-(8-Hydroxy-6,11-dimethyl-1,2,5,6-tetrahydro-4H-2,6-methano-benzo[d]azocin-3-yl)-hexanenitrile] | 5.7
CC1C2Cc3ccc(O)cc3[C@@]1(C)CCN2CCCCCCC#N (some centres not stated) [7-(8-Hydroxy-6,11-dimethyl-1,2,5,6-tetrahydro-4H-2,6-methano-benzo[d]azocin-3-yl)-heptanenitrile] | 1.9
CC1C2Cc3ccc(O)cc3[C@@]1(C)CCN2CC#N (some centres not stated) [(8-Hydroxy-6,11-dimethyl-1,2,5,6-tetrahydro-4H-2,6-methano-benzo[d]azocin-3-yl)-acetonitrile] | 93
